Literature values as cited in patent publication US20230082870A1, “COMPOSITION FOR CALCIUM SUPPLEMENTATION” (ABIOGEN PHARMA S.P.A., priority 2017, published 2023).

Settings: state of the art

For `O=C([O-])CC(O)(CC(=O)[O-])C(=O)[O-].O=C([O-])CC(O)(CC(=O)[O-])C(=O)[O-].[Ca+2].[Ca+2].[Ca+2]` [calcium citrate], the “Bioavailability, higher than that of calcium carbonate” value is listed as 20-30%.
